According to US12357582B2, “Hydrophobic ion pairing and flash nanoprecipitation for formation of controlled-release nanocarrier formulations” (The Trustees of Princeton University, priority 2017, dated 2025):

Columns and labels:
[1] = Ion-pairing screening using polymyxin B API; type: physicochemical; design: key to Reprecipitation: + details re-precipitation observed; − details no re-precipitation observed; key to Organic Dissolution: ++ details complete dissolution; + details non-complete dissolution; key to Precipitation: +++: + details qualitative observations of the amount of solid formed; ++: + details qualitative observations of the amount of solid formed; + details qualitative observations of the amount of solid formed; − details no solids formed; conditions: for Precipitation: polymyxin B API mixed with IP in water; for Reprecipitation: polymyxin B:IP organic solution diluted ten-fold in water; for Organic Dissolution: polymyxin B:IP pellet in organic solvent (THF); for precipitation upon mixing and NC formation: FIG. 4, polymyxin
Method: (§1) The fifteen ion pairing (IP) reagents listed above were screened to assess if hydrophobic API salt forms would be formed and would precipitate from solution. Ion pair and API drug properties were calculated with Molinspiration software (Molinspiration Cheminformatics, Slovakia). APIs were dissolved in water at 5 mg mL^−1 concentration and mixed with IPs dissolved in water at varying concentrations to yield different API to IP ratios. The screening process determines whether a particular IP may be used with a given API for NC formation.
(§2) In the case of pre-ion pairing, API and IP are mixed in water to form a water-insoluble precipitate (referred to as an API:IP complex). The water is then removed, and the API:IP complex is dissolved into an organic solvent (along with a block copolymer) for use in the organic stream in FNP. In this case, the API:IP complex is treated as a component in the organic stream of normal FNP. The screening process for the pre-ion paired method FNP involves four sequential tests. • 1. The first test examines the solubility of the IP agent. IP is added to DI water at a concentration that would be required for a 1:1 API:IP charge ratio if the API were dissolved at 5 mg mL^−1. (In this text the ratios are presented as charge ratios of API:IP.) Substantial […] in water is required for successful ion pairing. • 2. The second test examines whether an in situ API:IP complex can be formed in a single step. For example, The second test examines whether solids precipitate upon mixing of the aqueous IP solution with an aqueous API solution. Alternatively, IP in an organic, but water miscible, solution is mixed against the aqueous API solution. The final solution is checked visually to see if precipitation has occurred. In this test, the IP solution is at a concentration such that mixing equal volumes of IP solution and API solution will form a 1:1 API to IP charge ratio. Four API:IP ratios are investigated: 200 μL API solution is mixed with 100 μL IP solution for a 1:0.5 charge ratio; 200 μL API solution is mixed with 200 μL IP solution for a 1:1 charge ratio; 200 μL API solution is mixed with 400 μL IP solution for a 1:2 charge ratio; and 200 μL API solution is mixed with 800 μL IP solution for a 1:4 charge ratio. • 3. The third test examines whether the API:IP complex can be solubilized in the organic phase for subsequent FNP NC formation. Pellets of the precipitate formed in the second test are tested to see if they are soluble in a water-miscible organic solvent such as tetrahydrofuran (THF) or more polar solvents such as dimethyl sulfoxide (DMSO) or methanol (MeOH). For example, if precipitates were formed in the second test, the mixture can be centrifuged at 20800 rcf for 20 minutes, and the aqueous supernatant can be removed in order to recover pelleted precipitate. 200 μL of organic solvent can be added to the pellet; the solution can then be mixed to determine whether the pellet dissolves. • 4. The final (fourth) test assesses if the hydrophobic API:IP complex will re-precipitates when mixed with water, e.g., upon FNP mixing with water as the antisolvent. The organic solvent containing API:IP from the third test is diluted ten-fold in water, and precipitate formation is examined. If a precipitate forms, then the construct is suitable for use in FNP. In Situ Ion Pairing
(§3) Several water-soluble counter ion salts IPs were chosen for this investigation to determine the physical properties of the counter ions required for successful complex formation (FIG. 3). A range of carboxylate and sulfonate salt IPs whose acid forms have pKa ranging 5 to −1.9 were tested, as well as salts with a wide range of solubilities and LogP values as high as 7.6 or as low as −4.92. API was dissolved at 5 mg mL^−1 in water in 1× volume, and rapidly mixed with 1× volume of dissolved IP to give a final mixture containing a 1:1 API:IP charge ratio. Mixtures were visually observed to assess if precipitates rapidly formed.

[2] = Ion-pairing screening using gentamicin API; type: physicochemical; design: key to Reprecipitation: + details reprecipitation observed; − details no reprecipitation observed; key to Organic Dissolution: ++ details complete dissolution; + details non-complete dissolution; key to Precipitation: +++: + details qualitative observations of the amount of solid formed; ++: + details qualitative observations of the amount of solid formed; + details qualitative observations of the amount of solid formed; − details no solids formed; conditions: for Precipitation: gentamicin API mixed with IP in water; for Reprecipitation: gentamicin:IP organic solution diluted ten-fold in water; for Organic Dissolution: gentamicin:IP pellet in organic solvent (THF)
Method: as §1, §2
as §3, with “formed. […]” for “formed.”

[3] = ambient temperature; cited from earlier work
[4] = API release from NCs by dialysis (BCA assay); type: physicochemical
Method: Drug concentrations were determined with the bicinchoninic acid (BCA) assay (Spectramax i3x, Molecular Devices) with absorbance measurements at 562 nm, using a standard curve of the same drug (unencapsulated) as the reference. API fractional release was determined by dialyzing NC sample in 100-fold 1×PBS. […] The drug concentration in each aliquot was determined by the BCA assay at 562 nm. The released fraction is the API concentration at each time point divided by the initial API concentration before dialysis (Eq. 2).
API release rates from NCs are a critical determinant of dosing frequency, in vivo active concentrations, and overall therapeutic effectiveness. The release rates of polymyxin B were assessed by enclosing NCs in an 8 kDa MWCO dialysis bag and diluting into a thousand-fold excess volume of PBS to simulate an “open sink” condition at room temperature. Encapsulated polymyxin within dialysis bags was measured over time, using the BCA assay, to determine the amount of API that had been released (FIGS. 7A, 7B, and 7C).

[5] = Particle size and polydispersity by dynamic light scattering; type: physicochemical; conditions: PCL5k-b-PEG5k NPs
cells = experiment: Lysozyme activity after release (ability to lyse cells); type: biochemical
[6] = OVA with at least one charge equivalent of quaternary ammonium surfactant

| Molecule | Precipitation [1] | Precipitation [2] | Reprecipitation [1] | Organic Dissolution [1] | other results |
| --- | --- | --- | --- | --- | --- |
| CC1(C)C2CC[C@]1(CS(=O)(=O)O)C(=O)C2 [(1R)-(-)-10-Camphorsulfonic Acid, (1R)-(−)-10-camphorsulfonic acid] | − | − |  |  |  |
| O=S(=O)(O)c1ccccc1 [Benzenesulfonic Acid Monohydrate, benzenesulfonic acid monohydrate] | − | − |  |  |  |
| CCCCCCCC/C=C\CCCCCCCC(=O)O [Oleic acid, oleic acid] |  |  |  |  | solubility in water [3]: ~3e-07 g/g |
| O=S(=O)([O-])CCS(=O)(=O)[O-].[Na+].[Na+] [Sodium 1,2-Ethanedisulfonate, sodium 1,2-ethanesulfonate] | − | − |  |  |  |
| CCCCCCCCCCS(=O)(=O)[O-].[Na+] [Sodium 1-Decanesulfonate, sodium 1-decanesulfonate] | +++ | +++ | + | ++ | Reprecipitation [2]: +; Organic Dissolution [2]: ++ |
| CCCCCCCS(=O)(=O)[O-].[Na+] [Sodium 1-Heptanesulfonate, sodium 1-heptanesulfonate] | + | − | − | + |  |
| CCCCCCCCS(=O)(=O)[O-].O.[Na+] [Sodium 1-Octanesulfonate Monohydrate, sodium 1-octanesulfonate monohydrate] | +++ | ++ | − | ++ | Reprecipitation [2]: −; Organic Dissolution [2]: ++ |
| O=S(=O)([O-])c1ccc2ccccc2c1.[Na+] [Sodium 2-Naphthalenesulfonate, sodium 2-naphthalenesulfonate] | ++ | ++ | − | ++ | Reprecipitation [2]: −; Organic Dissolution [2]: ++ |
| CCCCCCCCCC(=O)[O-].[Na+] [Sodium Decanoate, sodium decanoate] | ++ | + | − |  |  |
| CCCCCCCCCCCCOS(=O)(=O)[O-].[Na+] [Sodium Dodecyl Sulfate, sodium dodecyl sulfate] | +++ | +++ | + | ++ | precipitation upon mixing and NC formation [1]: rapid precipitation and successful NC formation; Reprecipitation [2]: +; Organic Dissolution [2]: ++ |
| CCCCCCCCCCCCc1ccc(S(=O)(=O)[O-])cc1.[Na+] [Sodium Dodecylbenzenesulfonate, sodium dodecylbenezenesulfonate] | +++ | +++ | + | ++ | precipitation upon mixing and NC formation [1]: rapid precipitation and successful NC formation; Reprecipitation [2]: +; Organic Dissolution [2]: ++ |
| CCCCCC(=O)[O-].[Na+] [Sodium Hexanoate, Sodium hexanoate] | − | − |  |  |  |
| CCCCCCCCCCCCCC(=O)[O-].[Na+] [Sodium Myristate, sodium myristate] | ++ | − |  |  |  |
| CCCCCCCC/C=C\CCCCCCCC(=O)[O-].[Na+] [Sodium Oleate, sodium oleate] | +++ | − | + | ++ | precipitation upon mixing and NC formation [1]: rapid precipitation and successful NC formation |
| Lysozyme [LYZ] |  |  |  |  | LYZ released by 14 days ([4]; NPs with OA, 1:2 charge ratio): 20%; LYZ released by 14 days ([4]; NPs with OA, 1:4 charge ratio): 10%; LYZ released by 14 days ([4]; NPs with SDS, 1:1 charge ratio): 50%; NP diameter ([5]; LYZ pre-formed with SDS or DXS): ~150 nm; PDI ([5]; LYZ pre-formed with SDS or DXS): < 0.2; released LYZ with activity equal to LYZ that was never encapsulated (cells; following release from NPs, over all formulations): up to 100%; released LYZ that was bioactive (cells; paired 1:1 with DXS): 100%; released LYZ that was bioactive (cells; paired 1:1 with OA): 100%; released LYZ that was bioactive (cells; paired 1:1 with SDS): approximately 60%; released LYZ that was bioactive (cells; paired 1:2 with DXS): approximately 60%; released LYZ that was bioactive (cells; paired 1:2 with OA): 100%; released LYZ that was bioactive (cells; paired 1:2 with SDS): < 10%; released LYZ that was bioactive (cells; paired 1:4 with DXS): approximately 60%; released LYZ that was bioactive (cells; paired 1:4 with OA): approximately 60%; released LYZ that was bioactive (cells; paired 1:4 with SDS): < 10% |
| Mastoparan 7 [MP7, reference compound] |  |  |  |  | characteristic release time (time for 50% release) ([4]; MP7, NPs are MP7:SDS 1:1 PCL5k-b-PEG5k): 2.9 h |
| sodium deoxycholate | +++ | ++ |  |  |  |
| Ovalbumin (protein, UniProt P01012 2-386, looked up, anionic protein, 385 amino acid residues, 43,000 Da) Ovalbumin: GSIGAASMEFCFDVFKELKVHHANENIFYCPIAIMSALAMVYLGAKDSTRTQINKVVRFDKLPGFGDSIEAQCGTSVNVHSSLRDILNQITKPNDVYSFSLASRLYAEERYPILPEYLQCVKELYRGGLEPINFQTAADQARELINSWVESQTNGIIRNVLQPSSVDSQTAMVLVNAIVFKGLWEKAFKDEDTQAMPFRVTEQESKPVQMMYQIGLFRVASMASEKMKILELPFASGTMSMLVLLPDEVSGLEQLESIINFEKLTEWTSSNVMEERKIKVYLPRMKMEEKYNLTSVLMAMGITDVFSSSANLSGISSAESLKISQAVHAAHAEINEAGREVVGSAEAGVDAASVSEEFRADHPFLFCIKHIATNAVLFFGRCVSP |  |  |  |  | NP diameter [5, 6]: ~150 nm; PDI [5, 6]: < 0.2 |
